Assay: Human HepG2 cell viability assay in 384 well format
Format: toxicity, cell-based
Design: dose 125 nL, time 70.5 hour; concentration not given beside the values
Details: HepG2 cells, read-out: Inhibition

Question: With `Cc1ccc(-c2cnnc(N3CCCC3c3nccs3)n2)o1` (stereo unspecified) as the molecule, how does the cytotoxicity at 70.5 h read?
Answer: -7.57%

Question: With `COc1ccc(CC(C)Nc2cccc(F)c2)cc1` (stereo unspecified) as the molecule, how does the cytotoxicity at 70.5 h read?
Answer: -1.11%

Question: For `CS(=O)(=O)N1C[C@@H]2COC[C@@H](CC(=O)N3CCCCO3)[C@@H]2C1`, which cytotoxicity at 70.5 h is on record?
Answer: 5.89%

Question: Which cytotoxicity at 70.5 h does the source give for `Cc1cc(=O)n2ncnc2n1CC(O)COCc1ccccc1Cl` (stereo unspecified) here?
Answer: -9.61%

Question: With `Cn1nnc(NCc2ccc(-c3ccc(Cl)cc3)o2)n1` as the molecule, how does the cytotoxicity at 70.5 h read?
Answer: -4.59%

Question: For `CN1CCC(NC(=O)NCc2csc(Br)c2)CC1`, which cytotoxicity at 70.5 h is on record?
Answer: -10.7%

Question: With `O=C(c1ccc2c(c1)[nH]c(=O)n2C1CCCC1)N1CCSCC1` as the molecule, how does the cytotoxicity at 70.5 h read?
Answer: -4.63%

Question: Which cytotoxicity at 70.5 h does the source give for `Cc1cccc(-c2ccc(C(=O)NCCN(C)C3CC3)c(=O)[nH]2)c1` here?
Answer: -34.3%

Question: With `CC(Sc1n[nH]c(-c2ccc3c(c2)CCC3)n1)C(N)=O` (stereo unspecified) as the molecule, how does the cytotoxicity at 70.5 h read?
Answer: 0.8%

Question: With `COc1cc2nc3n(c(=O)c2cc1OC)CCN(C(=O)C(C)(C)C)CC3` as the molecule, how does the cytotoxicity at 70.5 h read?
Answer: -1.33%

Question: Which cytotoxicity at 70.5 h does the source give for `CCOCc1nc2c(c(N3CCCn4nc(C)cc4C3)n1)CCNCC2` here?
Answer: 23.6%

Question: Which cytotoxicity at 70.5 h does the source give for `Clc1ccc2[nH]c3c(c2c1)CCCC3c1nn[nH]n1` (stereo unspecified) here?
Answer: -6.09%

Question: For `Cc1noc(C)c1CN1CCC(c2nnc(Cn3cccn3)n2C)CC1`, which cytotoxicity at 70.5 h is on record?
Answer: -6.21%

Question: Which cytotoxicity at 70.5 h does the source give for `CN(C)C(CNC(=O)CCNC(=O)OCC(F)(F)F)c1ccsc1` (stereo unspecified) here?
Answer: -0.647%

Question: With `CN(C)CCNc1ccc(-c2nc(-c3ccccc3F)no2)cn1` as the molecule, how does the cytotoxicity at 70.5 h read?
Answer: 0.837%

Question: Which cytotoxicity at 70.5 h does the source give for `O=C(NCC1Cn2nnc(-c3cccc(F)c3)c2CO1)c1ccc[nH]1` (stereo unspecified) here?
Answer: 4.99%

Question: For `COc1cccc(CNC(=O)Cn2ccc3c(C)nn(C)c3c2=O)c1`, which cytotoxicity at 70.5 h is on record?
Answer: -5.8%

Question: Which cytotoxicity at 70.5 h does the source give for `COc1ccncc1NC(=O)C1(c2ccccc2)CC1` here?
Answer: -8.43%

Question: With `c1coc(-c2nc(CNC3CCCNC3)no2)c1` (stereo unspecified) as the molecule, how does the cytotoxicity at 70.5 h read?
Answer: 1.79%

Question: With `Cc1cc(NC(=O)C(C)Nc2ccn(Cc3ccccn3)n2)on1` (stereo unspecified) as the molecule, how does the cytotoxicity at 70.5 h read?
Answer: -10.1%

Question: Which cytotoxicity at 70.5 h does the source give for `Cc1ccc(C2CCCCCN2CCCS(C)(=O)=O)o1` (stereo unspecified) here?
Answer: -10.5%

Question: With `Cn1ccc(C(=O)Nc2cccc(-c3ccc4c(c3)CCO4)n2)cc1=O` as the molecule, how does the cytotoxicity at 70.5 h read?
Answer: -20.6%

Question: Which cytotoxicity at 70.5 h does the source give for `COC(=O)c1cccc(S(=O)(=O)Nc2ccc(Cl)c(C(N)=O)c2)c1` here?
Answer: -12.3%

Question: Which cytotoxicity at 70.5 h does the source give for `c1nc(N2CCOCC2)sc1-c1cncn1CCCN1CCCCC1` here?
Answer: -4.2%

Question: For `COCC(=O)N1CCCn2c(CN3CCCCC3)nnc2C1`, which cytotoxicity at 70.5 h is on record?
Answer: -7.69%

Question: Which cytotoxicity at 70.5 h does the source give for `Cc1ccc(-c2nc(CN3CCOC(c4ccccc4)C3)cs2)o1` (stereo unspecified) here?
Answer: -9.61%

Question: For `CCc1cc(N2C[C@H](C3CC3)[C@@H](N)C2)nc(N2CCCC2)n1`, which cytotoxicity at 70.5 h is on record?
Answer: 18.8%

Question: With `CC(C)c1ccc(-n2nnc(C(=O)O)c2-c2ccccn2)cc1` as the molecule, how does the cytotoxicity at 70.5 h read?
Answer: -24.1%

Question: For `O=C1CCC2(CCN(Cc3nccs3)CC2)N1Cc1ccccc1`, which cytotoxicity at 70.5 h is on record?
Answer: -7.75%

Question: With `O=C([C@H]1CCCO1)N1CCOC2(CCCN(c3ncccc3F)C2)C1` (stereo partly specified) as the molecule, how does the cytotoxicity at 70.5 h read?
Answer: -15.7%

Question: Which cytotoxicity at 70.5 h does the source give for `CC(C)c1nnc(CN2CC(n3cccn3)Cc3ccccc32)o1` (stereo unspecified) here?
Answer: -4.11%

Question: For `COCC(c1ccccn1)N(C)C(=O)c1cc(-c2ccc(O)cc2)n[nH]1` (stereo unspecified), which cytotoxicity at 70.5 h is on record?
Answer: -1.31%

Question: For `O=C(CNc1cc(-c2ccccc2)nc2ccnn12)NC1CC1`, which cytotoxicity at 70.5 h is on record?
Answer: -0.964%

Question: For `Cc1cc(C)n(C2CN(CC(O)COc3ccc(F)cc3)C2)n1` (stereo unspecified), which cytotoxicity at 70.5 h is on record?
Answer: -16.7%

Question: Which cytotoxicity at 70.5 h does the source give for `Oc1ncccc1-c1nc(-c2cccc(CN3CCOCC3)c2)no1` here?
Answer: -15.1%

Question: With `CN1CCCc2cc(CNC(=O)c3ccc(NC4CC4)nc3)ccc21` as the molecule, how does the cytotoxicity at 70.5 h read?
Answer: -3.79%

Question: Which cytotoxicity at 70.5 h does the source give for `COc1ccc(CN[C@@H]2CO[C@H](CNC(=O)NC(C)C)[C@H]2O)cc1` here?
Answer: -5.02%

Question: Which cytotoxicity at 70.5 h does the source give for `CC1CCCCN1C(=O)c1ccn(COc2ccc(F)cc2)n1` (stereo unspecified) here?
Answer: -9.66%

Question: For `Cc1noc(NC(=O)c2cccc(Br)c2)n1`, which cytotoxicity at 70.5 h is on record?
Answer: -0.644%

Question: For `CC(C)c1nnc2n1CCN(C(=O)c1ccnc(N(C)C)c1)C2`, which cytotoxicity at 70.5 h is on record?
Answer: -0.0863%

Question: Which cytotoxicity at 70.5 h does the source give for `Nc1cc(C(=O)N2C[C@H]3CC[C@@H]2CN(Cc2cccnc2)C3)ccn1` here?
Answer: -6.5%

Question: Which cytotoxicity at 70.5 h does the source give for `CCO[C@@H]1CC[C@H]2[C@H]1OCCN2C(=O)c1ccc(C)o1` here?
Answer: -4.6%

Question: With `O=C(COCC1CC1)NCC(c1ccccc1)N1CCc2sccc2C1` (stereo unspecified) as the molecule, how does the cytotoxicity at 70.5 h read?
Answer: -6.84%

Question: Which cytotoxicity at 70.5 h does the source give for `CCN(C)CC(=O)N1CCC(c2cc(N3CCOCC3)nc(C)n2)CC1` here?
Answer: -11.5%

Question: With `COc1cccc(OCC2CCCN(C(=O)CCn3ccnc3)C2)c1` (stereo unspecified) as the molecule, how does the cytotoxicity at 70.5 h read?
Answer: 11.7%

Question: Which cytotoxicity at 70.5 h does the source give for `O=C(Nc1cnccn1)[C@H]1COC[C@H]2CN(c3ncc(F)cn3)C[C@H]21` here?
Answer: -5.25%

Question: For `CC(NS(=O)(=O)CCc1ccccn1)c1ccccc1Br` (stereo unspecified), which cytotoxicity at 70.5 h is on record?
Answer: 33.3%

Question: For `O=C(c1coc(-c2ccccc2)n1)N1CCCC1`, which cytotoxicity at 70.5 h is on record?
Answer: 3.66%

Question: For `COC(=O)CC(C1=Cc2ccccc2OC1)c1oc(C)cc(=O)c1O` (stereo unspecified), which cytotoxicity at 70.5 h is on record?
Answer: 19.3%

Question: Which cytotoxicity at 70.5 h does the source give for `Cc1nnc(SCCCNC(=O)c2ccc3c(c2)OCO3)s1` here?
Answer: -9.91%

Question: With `O=C(NC1CCCCC1)N1C[C@@H]2OCCN(C(=O)c3ccco3)[C@@H]2C1` as the molecule, how does the cytotoxicity at 70.5 h read?
Answer: 0.645%

Question: With `C[C@@H]1CN(C(=O)C2CCOCC2)C[C@]12CCN(c1cccnc1)C2=O` as the molecule, how does the cytotoxicity at 70.5 h read?
Answer: -6.64%

Question: With `CCCc1noc(C(C)N(CC)Cc2ccco2)n1` (stereo unspecified) as the molecule, how does the cytotoxicity at 70.5 h read?
Answer: 7.58%

Question: With `O=C(CN1CC(n2cccn2)C1)NCCCc1ccccc1` as the molecule, how does the cytotoxicity at 70.5 h read?
Answer: -8.01%

Question: For `Cc1cc(OCCC(=O)Nc2cccc(F)c2)nnc1C`, which cytotoxicity at 70.5 h is on record?
Answer: 8.29%

Question: With `COCCC(=O)N1CCC(NC(=O)c2cscc2C)CC1` as the molecule, how does the cytotoxicity at 70.5 h read?
Answer: 6.09%

Question: Which cytotoxicity at 70.5 h does the source give for `CN1N=C(C(=O)N2CCCC(n3ccnc3)C2)CCC1=O` (stereo unspecified) here?
Answer: -7.88%

Question: With `Cc1nc2ncc3c(=O)n(C)ccc3n2n1` as the molecule, how does the cytotoxicity at 70.5 h read?
Answer: -8.63%

Question: Which cytotoxicity at 70.5 h does the source give for `CCOc1ccc(Cc2c(O)nc(SC)n(-c3ccccc3)c2=O)cc1` here?
Answer: -2.28%

Question: With `Cc1cnn(C2CN(Cc3nc(C(C)(C)C)no3)C2)c1` as the molecule, how does the cytotoxicity at 70.5 h read?
Answer: 20.7%

Question: With `Cc1nn(C)cc1CN1CCCC(n2c(=O)oc3ccc(Cl)cc32)C1` (stereo unspecified) as the molecule, how does the cytotoxicity at 70.5 h read?
Answer: 46.8%

Question: With `Cn1cc(CN2CC[C@H]3O[C@H](C(=O)NCc4ccco4)CC[C@H]32)cn1` as the molecule, how does the cytotoxicity at 70.5 h read?
Answer: -12.4%

Question: Which cytotoxicity at 70.5 h does the source give for `CCc1ccsc1C(=O)NC(Cc1ccccc1)C(N)=O` (stereo unspecified) here?
Answer: -6.72%

Question: For `CS(=O)(=O)NCc1cnc2n1CCN(Cc1ccsc1)CC2`, which cytotoxicity at 70.5 h is on record?
Answer: 8.08%

Question: With `CC(C)(C)OC(=O)NCC1CCCCN1Cc1ccccn1` (stereo unspecified) as the molecule, how does the cytotoxicity at 70.5 h read?
Answer: 1.05%

Question: For `NC(=O)Cn1c(SCc2noc(-c3ccsc3)n2)nnc1C1CC1`, which cytotoxicity at 70.5 h is on record?
Answer: -1.96%

Question: For `COCC1COCCC12CCN(Cc1cccs1)CC2` (stereo unspecified), which cytotoxicity at 70.5 h is on record?
Answer: -7.86%

Question: Which cytotoxicity at 70.5 h does the source give for `CCNC(=O)NCc1cccc(N2CC=CC2)c1` here?
Answer: 1.58%

Question: Which cytotoxicity at 70.5 h does the source give for `CC(=O)N1CCC(c2nnc3ccc(C(=O)NCCN(C)C)cn23)C1` (stereo unspecified) here?
Answer: -10.5%

Question: Which cytotoxicity at 70.5 h does the source give for `CC(C)(O)CCc1cccc(C(=O)NCCC2CCOC2)c1` (stereo unspecified) here?
Answer: -0.764%

Question: For `O=S(=O)(N[C@H]1CC[C@H]1NC1Cc2ccccc2C1)c1cccnc1`, which cytotoxicity at 70.5 h is on record?
Answer: -6.2%

Question: Which cytotoxicity at 70.5 h does the source give for `CCN(Cc1ccc2c(c1)OCO2)C(=O)NC(C)Cn1ccnc1` (stereo unspecified) here?
Answer: 1.66%

Question: With `CNC(=O)c1sc2ncccc2c1C1CCN(C(=O)CCOC)C1` (stereo unspecified) as the molecule, how does the cytotoxicity at 70.5 h read?
Answer: -8.16%

Question: Which cytotoxicity at 70.5 h does the source give for `O=C(Nc1cccc(CNCc2cccnc2)c1)C1CCCC1` here?
Answer: -4.79%

Question: With `Cn1cnc2c1CCN(CCOc1ccc3c(c1)CCC(=O)N3)C2` as the molecule, how does the cytotoxicity at 70.5 h read?
Answer: -12.1%

Question: With `CS(=O)(=O)c1cn[nH]c1C1CCCN1C(=O)c1cccnc1` (stereo unspecified) as the molecule, how does the cytotoxicity at 70.5 h read?
Answer: -2.09%

Question: With `Nc1ncnc2nc(C3CCN(C(=O)Cc4ccc(F)cc4)C3)ccc12` (stereo unspecified) as the molecule, how does the cytotoxicity at 70.5 h read?
Answer: -9.46%

Question: With `CS(=O)(=O)c1ccccc1N[C@@H]1c2ccccc2C[C@@H]1O` as the molecule, how does the cytotoxicity at 70.5 h read?
Answer: 21.1%

Question: Which cytotoxicity at 70.5 h does the source give for `Cc1ccc(C(=O)Nc2cn[nH]c2)cc1C` here?
Answer: -1.12%

Question: For `CNC(=O)C1CN(Cc2cc(C)on2)CCN(C(C)=O)C1` (stereo unspecified), which cytotoxicity at 70.5 h is on record?
Answer: -9.11%

Question: For `CCCc1noc(CS(=O)(=O)c2cccc(OC)c2)n1`, which cytotoxicity at 70.5 h is on record?
Answer: -5.69%
